What was measured:
[1] = tested on: Arabidopsis thaliana seedlings; assay: Treatment of Arabidopsis thaliana seedlings with doxorubicin-loaded PMPs (cytotoxicity: leaf vigor, leaf color, root length); format: in vivo; conditions: 7-day old seedlings, 24 hours treatment, 3 further days; doses tested 25, 50, 100 μM
Protocol: Wild type Arabidopsis thaliana Col-0 seeds were obtained from the ABRC, surface sterilized with 50% bleach, stratified for 1-3 d at 4° C., and germinated on half-strength (0.5×) Murashige and Skoog (MS) medium supplemented with 0.5% sucrose, 2.5 mM MES, pH 5.6, containing 0.8% agar, with a photoperiod of 16 h light 23° C./8 h dark 21° C.
To test whether PMPs can deliver a small molecule cargo in planta, 7-day old Arabidopsis thaliana seedlings were transferred to 0.5× liquid MS medium in a 24 well plate (1 seedling per well), and treated with free DOX or DOX-loaded PMPs with an encapsulated DOX dose of 0 (negative control), 25 μM, 50 μM and 100 μM. The plate was covered with aluminum foil and incubated for 24 hours. DOX-containing medium was removed, the seedlings were washed two times with ½X MS medium, and fresh medium was added. Seedlings were incubated for an additional 3 days under a normal photoperiod (16 h light 23° C./8 h dark 21° C.). Next, seedlings were removed from the plate and towel-dried for imaging and cytotoxicity was assessed by analyzing leaf vigor, leaf color and root length. Cytotoxicity is defined by shortening of the roots, loss of leaf vigor, and leaf discoloration (yellow instead of green) when compared to an untreated seedling control.

[2] = tested on: Saccharomyces cerevisiae; assay: Treatment of bacteria and yeast with DOX-loaded grapefruit PMPs (kinetic OD600, relative OD); conditions: S. cerevisiae, effective DOX 5-100 μM
Protocol: (§1) Bacteria and yeast strains were maintained as indicated by the supplier: E. coli(ATCC, #25922) was grown on Trypticase Soy Agar/broth at 37° C., Pseudomonas aeruginosa (ATCC) was grown on Tryptic soy Agar/broth with […] rifampicin at 37° C., Pseudomonas syringae pv. tomato str. DC3000 bacteria (ATCC, #BAA-871) was grown on King's Medium B agar with […] rifampicin at 30° C., and Saccharomyces cerevisiae (ATCC, #9763) was grown on yeast extract peptone dextrose broth (YPD) and maintained at 30° C. Prior to treatment, fresh one day cultures were grown overnight, the OD (600 nm) was adjusted to 0.1 OD with medium prior to use, and bacteria/yeast were transferred to a 96 well plate for treatment (duplicate samples, 100 μl/well). […] Plates were covered with aluminum foil, and incubated at 37° C. (E. coli, P. aeruginosa), or 30° C. (S. cerevisiae, P. syringae) and agitated at 220 rpm.
(§2) A kinetic Absorbance measurement at 600 nm was performed on a SpectraMax® spectrophotometer to monitor the OD of the cultures at t=0 h, t=1 h, t=2 h, t=3 h, t=4.5 h, t=16 h (E. coli, P. aeruginosa) or t=0.5 h, t=1.5 h, t=2.5 h, t=3.5 h, t=4 h, t=16 h (P. syringae, S. cerevisiae).
(§3) To compare the cytotoxic effect of PMP-DOX treatment on different bacterial and yeast strains, within each treatment group the relative OD was determined as compared to the untreated control (set to 100%).

[3] = tested on: Pseudomonas syringae pv. tomato str. DC3000; assay: as above; conditions: P. syringae, effective DOX 5-100 μM
Protocol: as §1, §2, §3

[4] = tested on: Pseudomonas aeruginosa; assay: as above; conditions: P. aeruginosa, effective DOX 5-100 μM
Protocol: as §1, §2, §3

[5] = tested on: E. coli; assay: as above; conditions: effective DOX 5-100 μM
Protocol: as §1, §2, §3

SMILES: COc1cccc2c1C(=O)c1c(O)c3c(c(O)c1C2=O)C[C@@](O)(C(=O)CO)C[C@@H]3O[C@H]1C[C@H](N)[C@H](O)[C@H](C)O1 [free doxorubicin, doxorubicin]
- DOX dose at which cytotoxicity was shown [1]: 100 µM
- cytotoxic effect (relative OD vs untreated control), in words [2]: cytotoxicity is induced earlier than with PMP-DOX delivery
- cytotoxic effect (relative OD vs untreated control), in words [3]: cytotoxicity is induced earlier than with PMP-DOX delivery
- cytotoxic effect (relative OD vs untreated control), in words [4]: cytotoxicity is induced earlier than with PMP-DOX delivery
- cytotoxic effect (relative OD vs untreated control), in words [5]: cytotoxicity is induced earlier than with PMP-DOX delivery
